Read-outs that look alike come from different tables or passages of the source.
Tests used:
[1] = target: Recombinant human Menin protein (2-610) / MLL polypeptide binding (Homo sapiens (Human), UniProt O00255); experiment: Menin and MLL protein binding at a molecular level (fluorescence polarization method); conditions: inhibition of Menin / MLL polypeptide binding
Text: Example 3: Determination of the Activity of the Compounds of the Present Invention on Menin and MLL Protein Binding at a Molecular Level (Fluorescence Polarization Method)
1. Reagents, Materials and Instruments:
• Recombinant human Menin protein (2-610): ChemPartner, CP2021020801; • MLL polypeptide (6-FAM-Ahx-SG-40): GL Biochem, 865700; • Trizma® hydrochloride buffer solution (Tris): Sigma, T2194-1 L; • NaCl: Invitrogen, AM9760G; • TCEP: Sigma, 646547; • DMSO: Sigma, D4540; • 384-well plate: Corning, 4514; • Envision: PerkinElmer.
2. Preparation of Reaction Solutions
• 1) Buffer solution: 20 mL of Tris and 4 mL of NaCl were added respectively to 376 mL of ddH2O, with pH adjusted to 7.5, and TCEP was added before testing with a dilution ratio of 1:500. • 2) 5× test compounds: the test compound was subjected to gradient dilution with the buffer solution to 5-fold the reaction concentration, so that the final concentrations of the compound were 1.000, 0.333, 0.111, 0.037, 0.012, 0.004, 0.001 and 0.0005 μM, respectively. • 3) 2.5× Menin protein reaction solution: the Menin protein was diluted to 5 nM with the buffer solution. • 4) 2.5×MLL polypeptide reaction solution: the MLL polypeptide was diluted to 5 nM with the buffer solution.
1) Binding Reaction (20 μL System)
4 μL of 5× test compound was added to each reaction well of the 384-well plate, and the corresponding volume of 10% DMSO was added to the control wells. Except the control wells, 8 μL of Menin protein reaction solution was added to each well. The reaction solution was incubated at room temperature for 30 minutes, and then 8 μL of MLL polypeptide reaction solution was added to each well. The final concentrations of DMSO in the test compound wells and control wells were all 2%. The 384-well plate was sealed and incubated at room temperature for 30 minutes in the dark.
Three control groups were set up: • a blank control group only containing a buffer solution; • a negative control group only containing MLL polypeptide reaction solution; and • a positive control group containing Menin protein reaction solution and MLL polypeptide reaction solution.
The vertical polarization S value and the horizontal polarization P value (excitation wavelength was 480 nm, and emission wavelength was 535 nm) were measured with Envision.
Corrected S is the S value of the negative control group—the S value of the blank control group
Corrected P is the P value of the negative control group—the P value of the blank control group
(§1) • calculated by using software XL-Fit™ (version 5.3) supplied by ID Business Solutions (Guildford, UK), which is an additional software to Microsoft Excel.

[2] = system: MV-4-11 cells (human acute myelogenous leukemia cell line carrying MLL-AF4 mutation); experiment: Cell proliferation assay, MV-4-11 (CellTiter-Glo); type: cell-based; conditions: Homo sapiens, MV4-11, 72 h
Protocol: Example 4 Cell Proliferation Assay
MV-4-11 (ATCC, CRL-9591), a human acute myelogenous leukemia cell line carrying MLL-AF4 mutation. Cells were cultured in an IMDM medium containing 10% heat-inactivated fetal bovine serum (HIFBS) and supplemented with 50 μM β-mercaptoethanol.
2. Reagents, Materials and Instruments:
• IMDM culture solution: GIBCO, 12440-053; • HIFBS: GIBCO, 10100-147; • β-mercaptoethanol: Sigma, M3148; • CellTiter-Glo® 2.0 assay kit (CTG): Promega, G9243; • DMSO: Sigma, D4540; • 96-well cell culture plate: Corning, 3903; • Envision: PerkinElmer.
MV-4-11 cells were resuspended in a medium, added to a 96-well plate at a density of 3000 cells/well with a volume of 100 μL/well, and cultured in a cell incubator at 5% CO2 and 37° C. for 4 hours. The test compound subjected to gradient dilution with the medium was added to a cell culture plate, and the final concentrations of the compound were 1.100, 0.367, 0.122, 0.041, 0.014, 0.005, 0.002 and 0.001 μM, respectively. The corresponding volume of DMSO diluent was added to a blank control well, and the final concentrations of DMSO in the experimental group and control group were both 0.1%. The cell plate was placed in a cell incubator at 5% CO2 and 37° C. and cultured for 3 days.
On day 0 and day 3 of the treatment, 50 μL/well CTG reagent was added to the cell plate and shaken at room temperature in the dark for 10 min, and then the chemiluminescence value of each well was measured with Envision.
[formula] • wherein: • luminescence valuetest sample: the chemiluminescence value of a cell well treated with the test compound for 3 days. • luminescence valueday 0: the chemiluminescence value of a cell well at day 0. • luminescence valuecell well: the chemiluminescence value of a cell well not treated with the compound for 3 days.
as §1

[3] = MV-4-11 cells, 3 days treatment, CellTiter-Glo, read-out: GI50

Recombinant human Menin protein (2-610) / MLL polypeptide binding, sequence (O00255 2-610): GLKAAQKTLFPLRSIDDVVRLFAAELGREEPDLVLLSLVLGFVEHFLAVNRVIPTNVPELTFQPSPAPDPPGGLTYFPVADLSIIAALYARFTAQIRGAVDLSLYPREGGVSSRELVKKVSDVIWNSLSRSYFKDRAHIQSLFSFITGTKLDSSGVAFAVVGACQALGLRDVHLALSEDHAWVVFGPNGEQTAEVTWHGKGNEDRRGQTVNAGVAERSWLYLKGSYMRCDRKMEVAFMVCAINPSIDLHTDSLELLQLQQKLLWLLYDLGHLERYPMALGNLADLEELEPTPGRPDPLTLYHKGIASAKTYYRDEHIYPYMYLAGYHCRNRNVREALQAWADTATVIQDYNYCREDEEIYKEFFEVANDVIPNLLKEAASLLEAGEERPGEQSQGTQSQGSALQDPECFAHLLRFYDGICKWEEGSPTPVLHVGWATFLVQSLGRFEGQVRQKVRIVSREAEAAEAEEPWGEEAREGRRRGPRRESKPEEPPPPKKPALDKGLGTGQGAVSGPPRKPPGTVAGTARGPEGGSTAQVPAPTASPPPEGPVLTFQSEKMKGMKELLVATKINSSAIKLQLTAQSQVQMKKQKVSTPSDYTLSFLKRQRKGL

`CCN(C(=O)c1cc(F)ccc1Oc1nncnc1N1CC2(CCN(CC3CCN(C(=O)C4CC4)CC3)CC2)C1)C(C)C` [Compound 1, 2-((5-(7-((1-(cyclopropanecarbonyl)piperidin-4-yl)methyl)-2,7-diazaspiro[3.5]nonan-2-yl)-1,2,4-triazin-6-yl)oxy)-N-ethyl-5-fluoro-N-isopropylbenzamide] gave an IC50 [1] of 13.6 nM and a GI50 [2, 3] of 43 nM.
`CCN(C(=O)c1cc(F)ccc1Oc1nncnc1N1CC2(CCN(CC3CCN(C(=O)C4(C(F)(F)F)CC4)CC3)CC2)C1)C(C)C` [Compound 2] gave an IC50 [1] of 30 nM and a GI50 [2, 3] of 39 nM.
Work on `CCN(C(=O)c1cc(F)ccc1Oc1nncnc1N1CC2(CCN(CC3CCN(C(=O)C4CCC4)CC3)CC2)C1)C(C)C` [Compound 3] yielded an IC50 [1] of 2.4 nM and a GI50 [2, 3] of 31 nM.
`CCN(C(=O)c1cc(F)ccc1Oc1nncnc1N1CC2(CCN(CC3CCN(C(=O)C4CC(C)(C)C4)CC3)CC2)C1)C(C)C` [Compound 4] gave an IC50 [1] of 3.2 nM and a GI50 [2, 3] of 8 nM.
In the case of `CCN(C(=O)c1cc(F)ccc1Oc1nncnc1N1CC2(CCN(CC3CCN(C(=O)C4COC4)CC3)CC2)C1)C(C)C` [Compound 5], the IC50 [1] is reported as 21.3 nM and the GI50 [2, 3] is reported as 58 nM.
With `CCN(C(=O)c1cc(F)ccc1Oc1nncnc1N1CC2(CCN(CC3CCN(C(=O)C4CC(F)(F)C4)CC3)CC2)C1)C(C)C` [Compound 6] the IC50 [1] was 6.7 nM and the GI50 [2, 3] was 13 nM.
For `CCN(C(=O)c1cc(F)ccc1Oc1nncnc1N1CC2(CCN(CC3CCN(C(=O)CNC4CC4)CC3)CC2)C1)C(C)C` [Compound 7], the IC50 [1] was 50.2 nM and the GI50 [2, 3] was 80 nM.
For `CCN(C(=O)c1cc(F)ccc1Oc1nncnc1N1CC2(CCN(CC3CCN(C(=O)C4(OC)CC4)CC3)CC2)C1)C(C)C` [Compound 8], the IC50 [1] was 34.6 nM and the GI50 [2, 3] was 86 nM.
For `CCN(C(=O)c1cc(F)ccc1Oc1nncnc1N1CC2(CCN(CC3CCN(C(=O)COC)CC3)CC2)C1)C(C)C` [Compound 9], the IC50 [1] was 37.6 nM and the GI50 [2, 3] was 99 nM.
In the case of `CCN(C(=O)c1cc(F)ccc1Oc1nncnc1N1CC2(CCN(CC3CCN(C(=O)C(C)O)CC3)CC2)C1)C(C)C` (stereo not shown) [Compound 10], the IC50 [1] is reported as 41.7 nM and the GI50 [2, 3] is reported as 187 nM.
`CCN(C(=O)c1cc(F)ccc1Oc1nncnc1N1CC2(CCN(CC3CCN(C(=O)C4(O)CC4)CC3)CC2)C1)C(C)C` [Compound 11] gave an IC50 [1] of 5.1 nM and a GI50 [2, 3] of 20 nM.
For `CCN(C(=O)c1cc(F)ccc1Oc1nncnc1N1CC2(CCN(CC3CCN(C(=O)C4(C#N)CC4)CC3)CC2)C1)C(C)C` [Compound 12], the IC50 [1] was 19.8 nM and the GI50 [2, 3] was 36 nM.
For `CCN(C(=O)c1cc(F)ccc1Oc1nncnc1N1CC2(CCN(CC3CCN(C(=O)CC#N)CC3)CC2)C1)C(C)C` [Compound 13], the IC50 [1] was 14.5 nM and the GI50 [2, 3] was 20 nM.
`CCN(C(=O)c1cc(F)ccc1Oc1nncnc1N1CC2(CCN(CC3CCN(C(=O)c4ccccc4F)CC3)CC2)C1)C(C)C` [Compound 14] gave an IC50 [1] of 29.5 nM and a GI50 [2, 3] of 27 nM.
`CCN(C(=O)c1cc(F)ccc1Oc1nncnc1N1CC2(CCN(CC3CCN(C(=O)c4ccccn4)CC3)CC2)C1)C(C)C` [Compound 15] gave an IC50 [1] of 41.8 nM and a GI50 [2, 3] of 44 nM.
Compound `CCN(C(=O)c1cc(F)ccc1Oc1nncnc1N1CC2(CCN(CC3CCN(C(=O)c4cnn(C)c4)CC3)CC2)C1)C(C)C` [Compound 16] has an IC50 [1] of 75 nM and a GI50 [2, 3] of 113 nM.
`CCN(C(=O)c1cc(F)ccc1Oc1nncnc1N1CC2(CCN(Cc3ccc(NC(=O)CC#N)cc3C)CC2)C1)C(C)C` [Compound 17] was tested, and the IC50 [1] was 48.7 nM and the GI50 [2, 3] was 50 nM.
In the case of `C=CC(=O)N1CC(C(=O)N2CCC(CN3CCC4(CC3)CN(c3ncnnc3Oc3ccc(F)cc3C(=O)N(CC)C(C)C)C4)CC2)C1` [Compound 18, 2-((5-(7-((1-(1-acryloylazetidine-3-carbonyl)piperidin-4-yl)methyl)-2,7-diazaspiro[3.5]nonan-2-yl)-1,2,4-triazin-6-yl)oxy)-N-ethyl-5-fluoro-N-isopropylbenzamide], the IC50 [1] is reported as 14.6 nM and the GI50 [2] is reported as 12 nM.
`CCN(C(=O)c1cc(F)ccc1Oc1nncnc1N1CC2(CCN(CC3CCN(C(=O)C4(C(=O)N(C)C)CC4)CC3)CC2)C1)C(C)C` [Compound 19, 2-((5-(7-((1-(1-(dimethylcarbamoyl)cyclopropane-1-carbonyl)piperidin-4-yl)methyl)-2,7-diazaspiro[3.5]nonan-2-yl)-1,2,4-triazin-6-yl)oxy)-N-ethyl-5-fluoro-N-isopropylbenzamide] gave a GI50 [2] of 667 nM.
`C=CC(=O)N1CCC(CN2CCC3(CC2)CN(c2ncnnc2Oc2ccc(F)cc2C(=O)N(CC)C(C)C)C3)CC1` [Compound 20, 2-((5-(7-((1-acryloylpiperidin-4-yl)methyl)-2,7-diazaspiro[3.5]nonan-2-yl)-1,2,4-triazin-6-yl)oxy)-N-ethyl-5-fluoro-N-isopropylbenzamide] was tested, and the IC50 [1] was 98.7 nM and the GI50 [2, 3] was 58 nM.
`CCN(C(=O)c1cc(F)ccc1Oc1nncnc1N1CC2(CCN(CC3CCN(C(=O)C(F)(F)F)CC3)CC2)C1)C(C)C` [Compound 21] gave an IC50 [1] of 97.9 nM and a GI50 [2, 3] of 116 nM.
`CCN(C(=O)c1cc(F)ccc1Oc1nncnc1N1CC2(CCN(CC3CCN(S(C)(=O)=O)CC3)CC2)C1)C(C)C` [Compound 22] showed an IC50 [1] of 112 nM and a GI50 [2, 3] of 87 nM.
`CCN(C(=O)c1cc(F)ccc1Oc1nncnc1N1CC2(CCN(Cc3ccc(NS(C)(=O)=O)cc3C)CC2)C1)C(C)C` [Compound 23] showed an IC50 [1] of 23.2 nM and a GI50 [2, 3] of 56 nM.
`CCN(C(=O)c1cc(F)ccc1Oc1nncnc1N1CC2(CCN(CC3CCN(C(=O)N(C)C)CC3)CC2)C1)C(C)C` [Compound 24] gave an IC50 [1] of 23 nM and a GI50 [2, 3] of 54 nM.
For `CCN(C(=O)c1cc(F)ccc1Oc1nncnc1N1CC2(CCN(CC3CCN(C(=O)N(C)c4ccccn4)CC3)CC2)C1)C(C)C` [Compound 25], the IC50 [1] was 163 nM and the GI50 [2, 3] was 231 nM.
In the case of `CCN(C(=O)c1cc(F)ccc1Oc1nncnc1N1CC2(CCN(CC3CCN(C(=O)NC4CC4)CC3)CC2)C1)C(C)C` [Compound 26, N-cyclopropyl-4-((2-(6-(2-(ethyl(isopropyl)carbamoyl)-4-fluorophenoxy)-1,2,4-triazin-5-yl)-2,7-diazaspiro[3.5]nonan-7-yl)methyl)piperidine-1-carboxamide], the IC50 [1] is reported as 0.9 nM and the GI50 [2] is reported as 7 nM.
With `CCN(C(=O)c1cc(F)ccc1Oc1nncnc1N1CC2(CCN(CC3CCN(C(=O)NC)CC3)CC2)C1)C(C)C` [Compound 27] the IC50 [1] was 5.3 nM and the GI50 [2, 3] was 13 nM.
With `CCNC(=O)N1CCC(CN2CCC3(CC2)CN(c2ncnnc2Oc2ccc(F)cc2C(=O)N(CC)C(C)C)C3)CC1` [Compound 28] the GI50 [2, 3] was 9 nM.
With `CCN(C(=O)c1cc(F)ccc1Oc1nncnc1N1CC2(CCN(Cc3ccc4nccn4c3)CC2)C1)C(C)C` [Compound 63] the IC50 [1] was > 1000 nM.
Work on `CCN(C(=O)c1cc(F)ccc1Oc1nncnc1N1CC2(CCN(Cc3ccc4[nH]c(C(=O)NC)cc4c3)CC2)C1)C(C)C` [Compound 65] yielded an IC50 [1] of 83.9 nM.
Work on `CCN(C(=O)c1cc(F)ccc1Oc1nncnc1N1CC2(CCN(CC3CCN(C4=NN5CCC(=O)N=C5C=C4)CC3)CC2)C1)C(C)C` [Compound 83] yielded an IC50 [1] of 222 nM.
Work on `COc1cc(N2CCC(CN3CCC4(CC3)CN(c3ncnnc3Oc3ccc(F)c5nn(C(C)C)cc35)C4)CC2)nnc1OC` [Compound 105] yielded an IC50 [1] of 483 nM.

— US20260055108A1, “TRIAZINE COMPOUNDS AND USES THEREOF” (HUTCHMED LIMITED, priority 2022, published 2026)
